From ChEMBL document CHEMBL6153109, “Switching Roles─Exploring Concentration-Dependent Agonistic versus Antagonistic Behavior of Integrin Ligands” (J Med Chem, 2025)
Calls of active or inactive are those of the source. No cut-off for these calls is given here.

Legend:
M21 [1] = experiment: Inhibition of cell adhesion in human M21 cells expressing integrin alphaVbeta3 at 1 uM measured after 48 hrs by microscopic imaging analysis; type: functional, cell-based
M21 [2] = experiment: Inhibition of cell adhesion in human M21 cells expressing integrin alphaVbeta3 at 1 nM measured after 48 hrs by microscopic imaging analysis; type: functional, cell-based
Integrin alpha-5/beta-1 [3] = biological target: T1, Integrin alpha-5/beta-1 (Homo sapiens, UniProt P05556+P08648); experiment: Agonist activity at integrin alpha5beta1 in human OV-MZ-6 cells assessed as increase in FAK expression at 1 to 1000 nM measured after 5 to 60 mins by Western blot analysis; type: cell-based; conditions: dose 1-1000 nM, time 5-60 min
Integrin alpha-5/beta-1 [4] = biological target: T1, Integrin alpha-5/beta-1; experiment: Agonist activity at integrin alpha5beta1 in human OV-MZ-6 cells assessed as increase in p-FAK expression at 1 nM measured after 30 to 60 mins by Western blot analysis; type: cell-based; conditions: time 30-60 min
OV-MZ-6 = experiment: Inhibition of cell migration in human OV-MZ-6 cells expressing integrin alpha5beta1 assessed as delay in wound gap closure at 1 to 1000 nM measured after 24 to 72 hrs by wound scratch assay relative to control; type: functional, cell-based; conditions: dose 1-1000 nM, time 24-72 hrs
[5] = Inhibition of cell migration in human OV-MZ-6 cells expressing integrin alpha5beta1 assessed as cell coverage at 1 uM measured within 72 hrs by wound scratch assay relative to control; type: functional; design: scale not given: the % may be the effect or the level left
M21 [6] = experiment: Inhibition of cell migration in human M21 cells expressing integrin alphaVbeta3 assessed as cell coverage at 1 uM measured within 72 hrs by wound scratch assay (reference value: 95 %); type: functional; design: scale not given: the % may be the effect or the level left
M21 [7] = experiment: Inhibition of cell migration in human M21 cells expressing integrin alphaVbeta3 assessed as delay in wound gap closure at 1 nM measured after 9 to 72 hrs by wound scratch assay; type: functional, cell-based; conditions: time 9-72 hrs
M21 [8] = experiment: Inhibition of cell migration in human M21 cells expressing integrin alphaVbeta3 assessed as delay in wound gap closure at 1 uM measured after 72 hrs by wound scratch assay; type: functional, cell-based
Integrin alpha-5/beta-1 [9] = biological target: T1, Integrin alpha-5/beta-1; experiment: Agonist activity at integrin alpha5beta1 in human OV-MZ-6 cells assessed as fold increase in p-ERK1/2 expression at 1 uM incubated for 24 hrs by Western blot analysis; type: cell-based; conditions: filed as agonist

## CC(C)[C@H]1C(=O)N[C@@H](CCCNC(=N)N)C(=O)NCC(=O)N[C@@H](CC(=O)O)C(=O)N[C@H](Cc2ccccc2)C(=O)N1C [CILENGITIDE]
M21 [1]
  inhibition: Active
M21 [2]
  inhibition: inactive
Integrin alpha-5/beta-1 [3]
  Activity: inactive
Integrin alpha-5/beta-1 [4]
  Activity: inactive
OV-MZ-6
  inhibition: inactive
[5]
  Activity: 60%
M21 [6]
  Activity: 40%
M21 [7]
  inhibition: inactive
M21 [8]
  inhibition: Active
Integrin alpha-5/beta-1 [9]
  fold change (FC): 3.1
